The test relates to Pseudomonas aeruginosa. Briefly: agar bead model of rat chronic respiratory infection (quantitative lung pathology, histopathology). The format is in vivo. Conditions: 7 days post-infection. The protocol: The following Examples illustrate the effect of normal flora and the presence of autoinducer-2 (AI-2) on Pseudomonas aeruginosa infection in the agar bead model of rat chronic respiratory infection. Groups of 15 rats (male Sprague-Dawley 180-200 grams) were inoculated intratracheally with 0.05 mL suspensions of bacteria embedded in agar beads. Seven days post-infection each group was treated as follows: (1) five rats—lungs removed for quantitative microbiology; (2) five rats—bronchoaveolar lavage (BAL) were obtained and analyzed for total cell counts, neutrophils, neutrophil elastase and AI-2 activity; and (3) five rats—lungs removed for histology (quantitative pathology). In the microphotographs shown in FIGS. 4-7, the dark areas indicate regions of consolidation, an indication of tissue damage. An α-hemolytic Streptococcus isolate (designated CFX5) from a cystic fibrosis patient was used to supply naturally synthesized AI-2 in vivo.
Rats inoculated with agar beads containing Pseudomonas aeruginosa alone yielded the quantitative pathology shown in FIG. 3 (PAO), and the histopathology shown in the microphotograph of FIG. 4
Rats inoculated with agar beads containing Pseudomonas aeruginosa alone and exposed to synthetic AI-2 yielded the quantitative pathology shown in FIG. 3 (PAO/AI-2), and the histopathology shown in FIG. 5.
Rats inoculated with agar beads containing Pseudomonas aeruginosa +α-hemolytic Streptococcus (CFX5) yielded the quantitative pathology shown in FIG. 3 (PAO/NF), and the histopathology shown in FIG. 6.
Rats inoculated with agar beads containing Pseudomonas aeruginosa +α-hemolytic Streptococcus (CFX5), treated daily for six days with aerosolized QXO18 (2-pentyl-2-cyclopenten-1-one), an AI-2 antagonist, yielded the quantitative pathology shown in FIG. 3 (PAO/NF/QXO18), and the histopathology shown in FIG. 7.

Regarding `CCCCCC1=CCCC1=O` [2-pentyl-2-cyclopenten-1-one], the “lung pathology caused by Pseudomonas aeruginosa (percent of lung tissue showing consolidation)” value (Pseudomonas aeruginosa + α-hemolytic Streptococcus (CFX5), treated daily for six days with aerosolized compound, PAO/NF/QXO18 vs PAO/NF) was “greatly diminishes the increased lung pathology”.
Regarding autoinducer-2 [AI-2], the “lung pathology caused by Pseudomonas aeruginosa (percent of lung tissue showing consolidation)” value runs as follows: (AI-2 supplied endogenously by co-infecting α-hemolytic Streptococcus isolate CFX5, PAO/NF) “increases the lung pathology even more”; (rats inoculated with Pseudomonas aeruginosa alone, exposed to synthetic (exogenously supplied) AI-2, PAO/AI-2 vs PAO) “increases the lung pathology”.

These data come from US20030022932A1, “Methods for regulating bacteria” (priority 2001, published 2003).
